Assay results as given in PubChem BioAssay AID2060902 (Molecular Pharmacology Branch, DTP, NCI, 2025).

System: 485368-065-R3-J5-PDC spheroids with HUVEC/MSC, viability
Test: Anticancer human tumor 485368-065-R3-J5-PDC patient-derived pancreatic carcinoma cell line growth inhibition [RAS]
Settings: for viability, T/C: stronger effect = lower value
Outline: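 Agents were tested in combination matrices in half-log decrements from a top concentration at or near clinical Cmax (10 microM if undetermined). Targets were multi-cell spheroids of tumour lines plus HUVEC and MSC stromal cells.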
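Also: spheroids exposed to agents for seven days before readout.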

C=CC(=O)N1CCN(c2nc(OCC3CCCN3C)nc3c(F)c(-c4nc(N)cc(C)c4C(F)(F)F)c(Cl)cc23)C(C)C1 (stereo unspecified)
viability, T/C (compound 0.00316 µM): 106% [middle of 12 runs]
viability, T/C (compound 0.01 µM, compound 0.0316 µM): 101%
viability, T/C (compound 0.01 µM, compound 0.1 µM): 98.5%
viability, T/C (compound 0.01 µM, compound 0.316 µM): 111%
viability, T/C (compound 0.01 µM, compound 1 µM): 97%
viability, T/C (compound 0.01 µM): 104% [middle of 12 runs]
viability, T/C (compound 0.0316 µM, compound 0.00316 µM): 102%
viability, T/C (compound 0.0316 µM, compound 0.01 µM): 110%
viability, T/C (compound 0.0316 µM, compound 0.1 µM): 107%
viability, T/C (compound 0.0316 µM, compound 0.316 µM): 107%
viability, T/C (compound 0.0316 µM, compound 1 µM): 113%
viability, T/C (compound 0.0316 µM): 106% [middle of 13 runs]
viability, T/C (compound 0.1 µM, compound 0.00316 µM): 116%
viability, T/C (compound 0.1 µM, compound 0.01 µM): 112%
viability, T/C (compound 0.1 µM, compound 0.0316 µM): 99.1%
viability, T/C (compound 0.1 µM, compound 0.316 µM): 107%
viability, T/C (compound 0.1 µM, compound 1 µM): 94%
viability, T/C (compound 0.1 µM): 101% [middle of 13 runs]
viability, T/C (compound 0.316 µM, compound 0.00316 µM): 103%
viability, T/C (compound 0.316 µM, compound 0.01 µM): 104%
viability, T/C (compound 0.316 µM, compound 0.0316 µM): 102%
viability, T/C (compound 0.316 µM, compound 0.1 µM): 108%
viability, T/C (compound 0.316 µM, compound 1 µM): 100%
viability, T/C (compound 0.316 µM): 106% [middle of 13 runs]
viability, T/C (compound 1 µM, compound 0.00316 µM): 112%
viability, T/C (compound 1 µM, compound 0.01 µM): 106%
viability, T/C (compound 1 µM, compound 0.0316 µM): 108%
viability, T/C (compound 1 µM, compound 0.1 µM): 101%
viability, T/C (compound 1 µM, compound 0.316 µM): 96.7%
viability, T/C (compound 1 µM): 101% [middle of 13 runs]
IC50 (compound alone, run of 07/15/2024): > 1000 nM
IC50 (curve of compound): > 1000 nM

Nc1ccn(C2OC(CO)C(O)C2(F)F)c(=O)n1 (stereo unspecified) + C#Cc1c(F)ccc2cc(O)cc(-c3ncc4c(N5CC6CCC(C5)N6)nc(OCC56CCCN5CC(F)C6)nc4c3F)c12
IC50 (curve of first compound, second compound 0.0316 µM): 6.36 nM
IC50 (curve of first compound, second compound 0.1 µM): 6.3 nM
IC50 (curve of first compound, second compound 0.316 µM): 6.51 nM
IC50 (curve of first compound, second compound 1 µM): 6.09 nM
IC50 (curve of first compound, second compound 3.16 µM): 5.96 nM
IC50 (curve of first compound, second compound 10 µM): < 3.16 nM
viability, T/C (second compound 0.0316 µM, first compound 0.00316 µM): 98.4%
viability, T/C (second compound 0.0316 µM, first compound 0.01 µM): 18.8%
viability, T/C (second compound 0.0316 µM, first compound 0.0316 µM): 8.96%
viability, T/C (second compound 0.0316 µM, first compound 0.1 µM): 11.8%
viability, T/C (second compound 0.0316 µM, first compound 0.316 µM): 11.1%
viability, T/C (second compound 0.0316 µM, first compound 1 µM): 14.4%
viability, T/C (second compound 0.1 µM, first compound 0.00316 µM): 93.6%
viability, T/C (second compound 0.1 µM, first compound 0.01 µM): 20.7%
viability, T/C (second compound 0.1 µM, first compound 0.0316 µM): 10.9%
viability, T/C (second compound 0.1 µM, first compound 0.1 µM): 9.95%
viability, T/C (second compound 0.1 µM, first compound 0.316 µM): 11.6%
viability, T/C (second compound 0.1 µM, first compound 1 µM): 12.8%
viability, T/C (second compound 0.316 µM, first compound 0.00316 µM): 94.5%
viability, T/C (second compound 0.316 µM, first compound 0.01 µM): 23.5%
viability, T/C (second compound 0.316 µM, first compound 0.0316 µM): 10.9%
viability, T/C (second compound 0.316 µM, first compound 0.1 µM): 10.3%
viability, T/C (second compound 0.316 µM, first compound 0.316 µM): 11.8%
viability, T/C (second compound 0.316 µM, first compound 1 µM): 11.8%
viability, T/C (second compound 1 µM, first compound 0.00316 µM): 90.4%
viability, T/C (second compound 1 µM, first compound 0.01 µM): 19.5%
viability, T/C (second compound 1 µM, first compound 0.0316 µM): 12.1%
viability, T/C (second compound 1 µM, first compound 0.1 µM): 8.97%
viability, T/C (second compound 1 µM, first compound 0.316 µM): 10.8%
viability, T/C (second compound 1 µM, first compound 1 µM): 11%
viability, T/C (second compound 3.16 µM, first compound 0.00316 µM): 89%
viability, T/C (second compound 3.16 µM, first compound 0.01 µM): 18.3%
viability, T/C (second compound 3.16 µM, first compound 0.0316 µM): 9.24%
viability, T/C (second compound 3.16 µM, first compound 0.1 µM): 9.65%
viability, T/C (second compound 3.16 µM, first compound 0.316 µM): 9.37%
viability, T/C (second compound 3.16 µM, first compound 1 µM): 9.7%
viability, T/C (second compound 10 µM, first compound 0.00316 µM): 37.7%
viability, T/C (second compound 10 µM, first compound 0.01 µM): 20.8%
viability, T/C (second compound 10 µM, first compound 0.0316 µM): 8.12%
viability, T/C (second compound 10 µM, first compound 0.1 µM): 7.5%
viability, T/C (second compound 10 µM, first compound 0.316 µM): 8.95%
viability, T/C (second compound 10 µM, first compound 1 µM): 9.6%

CCc1c2c(nc3ccc(O)cc13)-c1cc3c(c(=O)n1C2)COC(=O)[C@]3(O)CC + CCn1c(-c2cccnc2C(C)OC)c2c3cc(ccc31)N1CCOC(CC(NC(=O)C(C(C)C)N(C)C(=O)C3(F)CCN(C(=O)C#CC(C)(C)N(C)C)CC3)C(=O)N3CCCC(N3)C(=O)OCC(C)(C)C2)C1
IC50 (curve of first compound, second compound 0.000949 µM): 2.21 nM
IC50 (curve of first compound, second compound 0.003 µM): 2.28 nM
IC50 (curve of first compound, second compound 0.00949 µM): 2.14 nM
IC50 (curve of first compound, second compound 0.03 µM): 2.27 nM
IC50 (curve of first compound, second compound 0.0949 µM): 2.05 nM
IC50 (curve of first compound, second compound 0.3 µM): 2.01 nM
viability, T/C (second compound 0.000949 µM, first compound 0.000949 µM): 84.3%
viability, T/C (second compound 0.000949 µM, first compound 0.003 µM): 36.9%
viability, T/C (second compound 0.000949 µM, first compound 0.00949 µM): 17%
viability, T/C (second compound 0.000949 µM, first compound 0.03 µM): 7.78%
viability, T/C (second compound 0.000949 µM, first compound 0.0949 µM): 3.95%
viability, T/C (second compound 0.000949 µM, first compound 0.3 µM): 3.3%
viability, T/C (second compound 0.003 µM, first compound 0.000949 µM): 84.1%
viability, T/C (second compound 0.003 µM, first compound 0.003 µM): 39.3%
viability, T/C (second compound 0.003 µM, first compound 0.00949 µM): 15.1%
viability, T/C (second compound 0.003 µM, first compound 0.03 µM): 6.58%
viability, T/C (second compound 0.003 µM, first compound 0.0949 µM): 5.33%
viability, T/C (second compound 0.003 µM, first compound 0.3 µM): 2.88%
viability, T/C (second compound 0.00949 µM, first compound 0.000949 µM): 76.9%
viability, T/C (second compound 0.00949 µM, first compound 0.003 µM): 39.2%
viability, T/C (second compound 0.00949 µM, first compound 0.00949 µM): 14.8%
viability, T/C (second compound 0.00949 µM, first compound 0.03 µM): 8.64%
viability, T/C (second compound 0.00949 µM, first compound 0.0949 µM): 4.69%
viability, T/C (second compound 0.00949 µM, first compound 0.3 µM): 3.02%
viability, T/C (second compound 0.03 µM, first compound 0.000949 µM): 88.8%
viability, T/C (second compound 0.03 µM, first compound 0.003 µM): 37.2%
viability, T/C (second compound 0.03 µM, first compound 0.00949 µM): 15.9%
viability, T/C (second compound 0.03 µM, first compound 0.03 µM): 8.19%
viability, T/C (second compound 0.03 µM, first compound 0.0949 µM): 3.98%
viability, T/C (second compound 0.03 µM, first compound 0.3 µM): 2.16%
viability, T/C (second compound 0.0949 µM, first compound 0.000949 µM): 88.1%
viability, T/C (second compound 0.0949 µM, first compound 0.003 µM): 29.7%
viability, T/C (second compound 0.0949 µM, first compound 0.00949 µM): 14.8%
viability, T/C (second compound 0.0949 µM, first compound 0.03 µM): 6.96%
viability, T/C (second compound 0.0949 µM, first compound 0.0949 µM): 4.68%
viability, T/C (second compound 0.0949 µM, first compound 0.3 µM): 2.71%
viability, T/C (second compound 0.3 µM, first compound 0.000949 µM): 82.5%
viability, T/C (second compound 0.3 µM, first compound 0.003 µM): 32.2%
viability, T/C (second compound 0.3 µM, first compound 0.00949 µM): 12.6%
viability, T/C (second compound 0.3 µM, first compound 0.03 µM): 9.2%
viability, T/C (second compound 0.3 µM, first compound 0.0949 µM): 5.3%
viability, T/C (second compound 0.3 µM, first compound 0.3 µM): 2.3%
